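Cells were grown in 96-well plates and exposed to each compound for 48 hours at five concentrations; endpoints were interpolated linearly between bracketing concentrations, or set to the highest concentration if not reached. GI50: concentration for 50% inhibition of growth. At the TGI there is no net growth.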
Experiments:
Test in all cases: NCI-60 cell line screen, 48 h
[1] = test system: OVCAR-5 ovarian
[2] = test system: SNB-75 CNS
[3] = test system: HS 578T breast
[4] = test system: HCC-2998 colon
[5] = test system: ACHN renal
[6] = test system: UACC-257 melanoma
[7] = test system: SK-MEL-28 melanoma
[8] = test system: SK-MEL-5 melanoma
[9] = test system: UACC-62 melanoma
[10] = test system: HL-60(TB) leukemia
[11] = test system: HT29 colon
[12] = test system: HCT-116 colon
[13] = test system: SN12C renal
[14] = test system: NCI/ADR-RES ovarian
[15] = test system: EKVX NSCLC
[16] = test system: UO-31 renal
[17] = test system: A549 NSCLC
[18] = test system: KM12 colon
[19] = test system: OVCAR-3 ovarian
[20] = test system: K-562 leukemia
[21] = test system: SF-295 CNS
[22] = test system: SNB-19 CNS
[23] = test system: 786-0 renal
[24] = test system: U251 CNS
[25] = test system: TK-10 renal
[26] = test system: IGROV1 ovarian
[27] = test system: NCI-H522 lung
[28] = test system: NCI-H460 lung
[29] = test system: COLO 205 colon
[30] = test system: CAKI-1 renal
[31] = test system: NCI-H226 lung
[32] = test system: SW-620 colon
[33] = test system: DU-145 prostate
[34] = test system: MDA-MB-231 breast
[35] = test system: NCI-H23 lung
[36] = test system: MALME-3M melanoma
[37] = test system: HCT-15 colon
[38] = test system: SF-268 CNS
[39] = test system: T-47D breast
[40] = test system: SF-539 CNS
[41] = test system: MCF7 breast
[42] = test system: HOP-62 NSCLC
[43] = test system: OVCAR-8 ovarian
[44] = test system: A498 renal
[45] = test system: MOLT-4 leukemia
[46] = test system: BT-549 breast
[47] = test system: SK-OV-3 ovarian
[48] = test system: SK-MEL-2 melanoma
[49] = test system: SR leukemia
[50] = test system: OVCAR-4 ovarian
[51] = test system: RXF 393 renal
[52] = test system: LOX IMVI melanoma
[53] = test system: M14 melanoma
[54] = test system: MDA-MB-435
[55] = test system: CCRF-CEM leukemia
[56] = test system: PC-3 prostate
[57] = test system: RPMI-8226 leukemia
[58] = test system: HOP-92 NSCLC

CC#CC#Cc1cccc(=O)o1
GI50 [1]: 24.2 µM | TGI [1]: 40 µM | GI50 [2]: 4.75 µM | TGI [2]: 21 µM | GI50 [3]: 10.2 µM | TGI [3]: 81.4 µM | GI50 [4]: 16 µM | TGI [4]: 29.5 µM | GI50 [5]: 8.15 µM | TGI [5]: 20.6 µM | GI50 [6]: 8.58 µM | TGI [6]: 23.3 µM | GI50 [7]: 4.25 µM | TGI [7]: 16.7 µM | GI50 [8]: 11.3 µM | TGI [8]: 26.7 µM | GI50 [9]: 2.98 µM | TGI [9]: 14.6 µM | GI50 [10]: 2.91 µM | TGI [10]: 18.1 µM | GI50 [11]: 4.17 µM | TGI [11]: 14.6 µM | GI50 [12]: 2.1 µM | TGI [12]: 5.79 µM | GI50 [13]: 26.8 µM | TGI [13]: > 100 µM | GI50 [14]: 18.2 µM | TGI [14]: > 100 µM | GI50 [15]: 3.14 µM | TGI [15]: 16.2 µM | GI50 [16]: 10.2 µM | TGI [16]: 22.6 µM | GI50 [17]: 14.6 µM | TGI [17]: 31.5 µM | GI50 [18]: 4.87 µM | TGI [18]: 17 µM | GI50 [19]: 3.34 µM | TGI [19]: 10.2 µM | GI50 [20]: 0.0136 µM | TGI [20]: > 100 µM | GI50 [21]: 12.8 µM | TGI [21]: 26.3 µM | GI50 [22]: 16.9 µM | TGI [22]: 30.5 µM | GI50 [23]: 13.6 µM | TGI [23]: 28.9 µM | GI50 [24]: 11.2 µM | TGI [24]: 24.9 µM | GI50 [25]: 5.08 µM | TGI [25]: 18.3 µM | GI50 [26]: 4.31 µM | TGI [26]: 19.8 µM | GI50 [27]: 3.67 µM | TGI [27]: 16.3 µM | GI50 [28]: 13.5 µM | TGI [28]: 29 µM | GI50 [29]: 3.85 µM | TGI [29]: 14.4 µM | GI50 [30]: 2.1 µM | TGI [30]: 4.78 µM | GI50 [31]: 21 µM | TGI [31]: 96.1 µM | GI50 [32]: 10 µM | TGI [32]: 24.9 µM | GI50 [33]: 15.7 µM | TGI [33]: 29.2 µM | GI50 [34]: 10.8 µM | TGI [34]: 24.7 µM | GI50 [35]: 5.97 µM | TGI [35]: 21.8 µM | GI50 [36]: 2.8 µM | TGI [36]: 14.1 µM | GI50 [37]: 8.08 µM | TGI [37]: 30.2 µM | GI50 [38]: 4.29 µM | TGI [38]: 18.1 µM | GI50 [39]: 4.35 µM | TGI [39]: 18.7 µM | GI50 [40]: 5.63 µM | TGI [40]: 26.6 µM | GI50 [41]: 3.4 µM | TGI [41]: 18.4 µM | GI50 [42]: 13.8 µM | TGI [42]: 27 µM | GI50 [43]: 4.89 µM | TGI [43]: > 100 µM | GI50 [44]: 16.5 µM | TGI [44]: 30 µM | GI50 [45]: 1.14 µM | TGI [45]: > 100 µM | GI50 [46]: 2.37 µM | TGI [46]: 10.1 µM | GI50 [47]: 20.5 µM | TGI [47]: 56.4 µM | GI50 [48]: 3.73 µM | TGI [48]: 34.3 µM | GI50 [49]: 1.38 µM | TGI [49]: 7.2 µM | GI50 [50]: 13 µM | TGI [50]: 25.6 µM | GI50 [51]: 2.48 µM | TGI [51]: 6.63 µM | GI50 [52]: 10.7 µM | TGI [52]: 24.1 µM | GI50 [53]: 9.52 µM | TGI [53]: 24.3 µM | GI50 [54]: 3.82 µM | TGI [54]: 22.7 µM

COc1cccc2c(Nc3ccc(C(=O)O)cc3)cc(-c3ccccc3)nc12
GI50 [1]: > 100 µM | TGI [1]: > 100 µM | GI50 [2]: 72.3 µM | TGI [2]: > 100 µM | GI50 [3]: > 100 µM | TGI [3]: > 100 µM | GI50 [4]: > 100 µM | TGI [4]: > 100 µM | GI50 [5]: > 100 µM | TGI [5]: > 100 µM | GI50 [6]: > 100 µM | TGI [6]: > 100 µM | GI50 [55]: > 100 µM | TGI [55]: > 100 µM | GI50 [7]: > 100 µM | TGI [7]: > 100 µM | GI50 [9]: > 100 µM | TGI [9]: > 100 µM | GI50 [10]: > 100 µM | TGI [10]: > 100 µM | GI50 [11]: > 100 µM | TGI [11]: > 100 µM | GI50 [12]: > 100 µM | TGI [12]: > 100 µM | GI50 [13]: > 100 µM | TGI [13]: > 100 µM | GI50 [14]: > 100 µM | TGI [14]: > 100 µM | GI50 [15]: > 100 µM | TGI [15]: > 100 µM | GI50 [16]: > 100 µM | TGI [16]: > 100 µM | GI50 [17]: > 100 µM | TGI [17]: > 100 µM | GI50 [18]: > 100 µM | TGI [18]: > 100 µM | GI50 [19]: > 100 µM | TGI [19]: > 100 µM | GI50 [20]: > 100 µM | TGI [20]: > 100 µM | GI50 [21]: > 100 µM | TGI [21]: > 100 µM | GI50 [23]: > 100 µM | TGI [23]: > 100 µM | GI50 [24]: > 100 µM | TGI [24]: > 100 µM | GI50 [25]: > 100 µM | TGI [25]: > 100 µM | GI50 [26]: > 100 µM | TGI [26]: > 100 µM | GI50 [27]: > 100 µM | TGI [27]: > 100 µM | GI50 [29]: > 100 µM | TGI [29]: > 100 µM | GI50 [30]: > 100 µM | TGI [30]: > 100 µM | GI50 [31]: > 100 µM | TGI [31]: > 100 µM | GI50 [32]: > 100 µM | TGI [32]: > 100 µM | GI50 [33]: > 100 µM | TGI [33]: > 100 µM | GI50 [34]: > 100 µM | TGI [34]: > 100 µM | GI50 [35]: > 100 µM | TGI [35]: > 100 µM | GI50 [56]: > 100 µM | TGI [56]: > 100 µM | GI50 [36]: > 100 µM | TGI [36]: > 100 µM | GI50 [37]: > 100 µM | TGI [37]: > 100 µM | GI50 [39]: 84.5 µM | TGI [39]: > 100 µM | GI50 [57]: > 100 µM | TGI [57]: > 100 µM | GI50 [40]: > 100 µM | TGI [40]: > 100 µM | GI50 [42]: > 100 µM | TGI [42]: > 100 µM | GI50 [43]: > 100 µM | TGI [43]: > 100 µM | GI50 [44]: > 100 µM | TGI [44]: > 100 µM | GI50 [46]: > 100 µM | TGI [46]: > 100 µM | GI50 [47]: > 100 µM | TGI [47]: > 100 µM | GI50 [48]: > 100 µM | TGI [48]: > 100 µM | GI50 [49]: > 100 µM | TGI [49]: > 100 µM | GI50 [50]: > 100 µM | TGI [50]: > 100 µM | GI50 [58]: 39.4 µM | TGI [58]: > 100 µM | GI50 [51]: > 100 µM | TGI [51]: > 100 µM | GI50 [52]: > 100 µM | TGI [52]: > 100 µM | GI50 [53]: > 100 µM | TGI [53]: > 100 µM | GI50 [54]: > 100 µM | TGI [54]: > 100 µM

— PubChem BioAssay (NCI)
